# Experimental data as given in patent publication US10597388B2, “Pyridazinone herbicides” (FMC CORPORATION, priority 2014, dated 2020).
# Key:
# Assay in all cases: Test D controlled growth environment herbicide test, pre- and postemergence
# Assay type in all cases: in vivo
# [1] = tested on: lambsquarters (Chenopodium album)
# Summary of the method: (§1)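 Pre-emergence: seeds sown in silt loam soil were sprayed with compound in a non-phytotoxic solvent mix containing surfactant. Post-emergence: plants at 2 to 18 cm (1- to 4-leaf stage) in peat moss/vermiculite medium got the same formulation. Visual 0–100 rating versus controls after 14 to 21 d.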
# [2] = tested on: speedwell (bird's-eye speedwell, Veronica persica)
# Summary of the method: as §1
# [3] = tested on: galium (catchweed bedstraw, Galium aparine)
# Summary of the method: as §1
# [4] = tested on: Russian thistle (Salsola kali)
# Summary of the method: as §1
# kochia (Kochia scoparia) = tested on: kochia (Kochia scoparia)
# Summary of the method: as §1
# [5] = tested on: oilseed rape (Brassica napus)
# Summary of the method: as §1
# [6] = tested on: pigweed (Amaranthus retroflexus)
# Summary of the method: as §1
# [7] = tested on: bromegrass, downy (downy bromegrass, Bromus tectorum)
# Summary of the method: as §1
# [8] = tested on: field violet (Viola arvensis)
# Summary of the method: as §1
# [9] = tested on: chamomile (scentless chamomile, Matricaria inodora)
# Summary of the method: as §1
# [10] = tested on: oat, wild (wild oat, Avena fatua)
# Summary of the method: as §1
# [11] = tested on: blackgrass (Alopecurus myosuroides)
# Summary of the method: as §1
# [12] = tested on: buckwheat, wild (wild buckwheat, Polygonum convolvulus)
# Summary of the method: as §1
# [13] = Postemergence, 31 g ai/ha, scale 0 to 100 (0 no effect, 100 complete control)
# [14] = Postemergence, 125 g ai/ha, visual rating on scale 0 (no effect) to 100 (complete control), 14 to 21 d
# [15] = Postemergence, 250 g ai/ha, scale 0 to 100 (0 no effect, 100 complete control)
# [16] = Preemergence, 125 g ai/ha, scale 0 to 100 (0 no effect, 100 complete control)
# [17] = Preemergence, 250 g ai/ha, scale 0 to 100 (0 no effect, 100 complete control)
# [18] = postemergence, 62 g ai/ha, scale 0 to 100, 0 no effect, 100 complete control
# [19] = Preemergence, 62 g ai/ha, scale 0 to 100 (0 no effect, 100 complete control)
structure (smiles),measurement,setting,value
Cc1cc(C)c2sc(C)c(-c3c(OC(=O)OCCCl)c(C)nn(C)c3=O)c2c1 [Compound 85],Lambsquarters plant response rating,[1]; [13],80
same,"Plant response rating, Lambsquarters",[1]; [14],95
same,"Plant response rating, Lambsquarters",[1]; [15],95
same,"Plant response rating (scale of 0 to 100), Lambsquarters","[1]; Preemergence, 31 g ai/ha",25
same,"Plant response rating (scale of 0 to 100), Lambsquarters","[1]; Preemergence, 62 g ai/ha",100
same,"Plant response rating, Lambsquarters",[1]; [16],100
same,"Plant response rating, Lambsquarters",[1]; [17],100
same,"Plant response rating, Lambsquarters",[1]; [18],85
same,Speedwell plant response rating,[2]; [13],35
same,"Plant response rating, Speedwell",[2]; [14],80
same,"Plant response rating, Speedwell",[2]; [15],100
same,"Plant response rating (scale of 0 to 100), Speedwell","[2]; Preemergence, 31 g ai/ha",50
same,"Plant response rating (scale of 0 to 100), Speedwell","[2]; Preemergence, 62 g ai/ha",90
same,"Plant response rating, Speedwell",[2]; [16],100
same,"Plant response rating, Speedwell",[2]; [17],100
same,"Plant response rating, Speedwell",[2]; [18],70
same,Galium plant response rating,[3]; [13],85
same,"Plant response rating, Galium",[3]; [14],100
same,"Plant response rating, Galium",[3]; [15],100
same,"Plant response rating (scale of 0 to 100), Galium","[3]; Preemergence, 31 g ai/ha",30
same,"Plant response rating (scale of 0 to 100), Galium","[3]; Preemergence, 62 g ai/ha",70
same,"Plant response rating, Galium",[3]; [16],75
same,"Plant response rating, Galium",[3]; [17],100
same,"Plant response rating, Galium",[3]; [18],95
same,Russian Thistle plant response rating,[4]; [13],65
same,"Plant response rating, Russian Thistle",[4]; [14],80
same,"Plant response rating, Russian Thistle",[4]; [15],90
same,"Plant response rating (scale of 0 to 100), Russian Thistle","[4]; Preemergence, 31 g ai/ha",5
same,"Plant response rating (scale of 0 to 100), Russian Thistle","[4]; Preemergence, 62 g ai/ha",10
same,"Plant response rating, Russian Thistle",[4]; [16],25
same,"Plant response rating, Russian Thistle",[4]; [17],75
same,"Plant response rating, Russian Thistle",[4]; [18],75
same,Kochia plant response rating,kochia (Kochia scoparia); [13],40
same,"Plant response rating, Kochia",kochia (Kochia scoparia); [14],70
same,"Plant response rating, Kochia",kochia (Kochia scoparia); [15],75
same,"Plant response rating (scale of 0 to 100), Kochia","kochia (Kochia scoparia); Preemergence, 31 g ai/ha",5
same,"Plant response rating (scale of 0 to 100), Kochia","kochia (Kochia scoparia); Preemergence, 62 g ai/ha",10
same,"Plant response rating, Kochia",kochia (Kochia scoparia); [16],10
same,"Plant response rating, Kochia",kochia (Kochia scoparia); [17],45
same,"Plant response rating, Kochia",kochia (Kochia scoparia); [18],65
same,Oilseed Rape plant response rating,[5]; [13],65
same,"Plant response rating, Oilseed Rape",[5]; [14],70
same,"Plant response rating, Oilseed Rape",[5]; [15],80
same,"Plant response rating (scale of 0 to 100), Oilseed Rape","[5]; Preemergence, 31 g ai/ha",0
same,"Plant response rating (scale of 0 to 100), Oilseed Rape","[5]; Preemergence, 62 g ai/ha",0
same,"Plant response rating, Oilseed Rape",[5]; [16],20
same,"Plant response rating, Oilseed Rape",[5]; [17],30
same,"Plant response rating, Oilseed Rape",[5]; [18],70
same,Pigweed plant response rating,[6]; [13],75
same,"Plant response rating, Pigweed",[6]; [14],85
same,"Plant response rating, Pigweed",[6]; [15],85
same,"Plant response rating (scale of 0 to 100), Pigweed","[6]; Preemergence, 31 g ai/ha",95
same,"Plant response rating (scale of 0 to 100), Pigweed","[6]; Preemergence, 62 g ai/ha",100
same,"Plant response rating, Pigweed",[6]; [16],100
same,"Plant response rating, Pigweed",[6]; [17],100
same,"Plant response rating, Pigweed",[6]; [18],80
same,"Bromegrass, Downy plant response rating",[7]; [13],30
same,"Plant response rating, Bromegrass, Downy",[7]; [14],35
same,"Plant response rating, Bromegrass, Downy",[7]; [15],60
same,"Plant response rating (scale of 0 to 100), Bromegrass, Downy","[7]; Preemergence, 31 g ai/ha",15
same,"Plant response rating, Bromegrass, Downy",[7]; [19],35
same,"Plant response rating, Bromegrass, Downy",[7]; [16],55
same,"Plant response rating, Bromegrass, Downy",[7]; [17],80
same,"Plant response rating, Bromegrass, Downy",[7]; [18],30
same,Field Violet plant response rating,[8]; [13],65
same,"Plant response rating, Field Violet",[8]; [14],75
same,"Plant response rating, Field Violet",[8]; [15],90
same,"Plant response rating (scale of 0 to 100), Field Violet","[8]; Preemergence, 31 g ai/ha",65
same,"Plant response rating (scale of 0 to 100), Field Violet","[8]; Preemergence, 62 g ai/ha",70
same,"Plant response rating, Field Violet",[8]; [16],95
same,"Plant response rating, Field Violet",[8]; [17],100
same,"Plant response rating, Field Violet",[8]; [18],65
same,Chamomile plant response rating,[9]; [13],75
same,"Plant response rating, Chamomile",[9]; [14],90
same,"Plant response rating, Chamomile",[9]; [15],85
same,"Plant response rating, Chamomile",[9]; [18],75
same,"Oat, Wild plant response rating",[10]; [13],75
same,"Plant response rating, Oat, Wild",[10]; [14],95
same,"Plant response rating, Oat, Wild",[10]; [15],100
same,"Plant response rating (scale of 0 to 100), Oat, Wild","[10]; Preemergence, 31 g ai/ha",75
same,"Plant response rating (scale of 0 to 100), Oat, Wild","[10]; Preemergence, 62 g ai/ha",75
same,"Plant response rating, Oat, Wild",[10]; [16],85
same,"Plant response rating, Oat, Wild",[10]; [17],90
same,"Plant response rating, Oat, Wild",[10]; [18],85
same,Blackgrass plant response rating,[11]; [13],75
same,"Plant response rating, Blackgrass",[11]; [14],90
same,"Plant response rating, Blackgrass",[11]; [15],90
same,"Plant response rating (scale of 0 to 100), Blackgrass","[11]; Preemergence, 31 g ai/ha",75
same,"Plant response rating, Blackgrass",[11]; [19],80
same,"Plant response rating, Blackgrass",[11]; [16],85
same,"Plant response rating, Blackgrass",[11]; [17],85
same,"Plant response rating, Blackgrass",[11]; [18],80
same,"Buckwheat, Wild plant response rating",[12]; [13],95
same,"Plant response rating, Buckwheat, Wild",[12]; [14],100
same,"Plant response rating, Buckwheat, Wild",[12]; [15],100
same,"Plant response rating (scale of 0 to 100), Buckwheat, Wild","[12]; Preemergence, 31 g ai/ha",20
same,"Plant response rating, Buckwheat, Wild",[12]; [19],65
same,"Plant response rating, Buckwheat, Wild",[12]; [16],80
same,"Plant response rating, Buckwheat, Wild",[12]; [17],100
same,"Plant response rating, Buckwheat, Wild",[12]; [18],100
